From publication PMC6199744, “Development of Chemical Proteomics for the Folateome and Analysis of the Kinetoplastid Folateome” (ACS Infectious Diseases, 2018)

Tested on: L. major lysate proteins
Experiment: Multitargeted bead mixture chemoproteomics, single concentration competition, proteome-wide
Assay type: binding
Conditions: for fold change / fold change relative to vehicle control: vehicle control = 1; for fold change relative to vehicle control: competition with free ligand

CCCCCCOc1cccc(Cc2cnc(N)nc2N)c1 [compound 2]
fold change vs vehicle control (protein LMJF.22.0730 HY[…], CONSERVED): 1.07
fold change (protein LMJF.22.1460 I/6 AUTOANTIGEN-LIKE PROTEIN): 1.1
fold change vs vehicle control (protein LMJF.22.1540 ALANYL-TRNA SYNTHETASE, PUTATIVE): 1.04
fold change vs vehicle control (protein LMJF.23.0370 […] OXIDASE SUBUNIT 10, PUTATIVE): 1.09
fold change (protein LMJF.23.0830 NA/H ANTIPORTER-LIKE PROTEIN): 0.96
fold change (protein LMJF.23.1020 HY[…], UNKNOWN FUNCTION): 1.14
fold change (protein LMJF.23.1220 T-COMPLEX PROTEIN 1, GAMMA SUBUNIT, PUTATIVE): 1.08
fold change vs vehicle control (protein LMJF.24.0140 ANKYRIN/TPR REPEAT PROTEIN): 1.09
fold change (protein LMJF.24.0280 DYNEIN INTERMEDIATE-CHAIN-LIKE PROTEIN): 0.94
fold change (protein LMJF.24.0770 MALIC ENZYME, PUTATIVE): 1.06
fold change relative to vehicle control (protein LMJF.24.1510 IGE-DEPENDENT HISTAMINE-RELEASING FACTOR, PUTATIVE): 1.53
fold change vs vehicle control (protein LMJF.24.1630, SUCCINATE DEHYDROGENASE FLAVOPROTEIN, PUTATIVE): 1
fold change vs vehicle control (protein LMJF.24.1840 LYSOPHOSPHOLIPASE, PUTATIVE): 1.01
fold change relative to vehicle control (protein LMJF.24.2060 TRANSKETOLASE): 0.99
fold change (protein LMJF.24.2250 FATTY-ACID DESATURASE, PUTATIVE): 1.01
fold change vs vehicle control (protein LMJF.25.0120 ELECTRON TRANSFER FLAVOPROTEIN, PUTATIVE): 1.07
fold change vs vehicle control (protein LMJF.25.0260 DYNEIN LIGHT CHAIN 1, CYTOPLASMIC, PUTATIVE): 1.15
fold change relative to vehicle control (protein LMJF.25.0910 CYCLOPHILIN A): 1.57
fold change vs vehicle control (protein LMJF.25.1180, ATPASE BETA SUBUNIT, PUTATIVE): 1.17
fold change (protein LMJF.25.1610 HY[…], CONSERVED): 1.09
fold change (protein LMJF.25.1620 HY[…], CONSERVED): 1.15
fold change vs vehicle control (protein LMJF.26.1240 HEAT SHOCK PROTEIN 70-RELATED PROTEIN): 1.01
fold change vs vehicle control (protein LMJF.26.1710 […] OXIDASE SUBUNIT V, PUTATIVE): 1.08
fold change vs vehicle control (protein LMJF.26.1960 HY[…], CONSERVED): 1.05
fold change vs vehicle control (protein LMJF.26.2000 HYPOTHETICAL PROTEIN, CONSERVED): 1.23
fold change vs vehicle control (protein LMJF.27.0420 RIBOKINASE, PUTATIVE): 1.18
fold change vs vehicle control (protein LMJF.27.1060 CYSTEINE DESULFURASE, PUTATIVE): 0.93
fold change (protein LMJF.27.1310 ARGINYL-TRNA SYNTHETASE, PUTATIVE): 0.98
fold change vs vehicle control (protein LMJF.27.2400 HEAT SHOCK PROTEIN DNAJ, PUTATIVE): 0.96
fold change vs vehicle control (protein LMJF.28.0110 […] 3 SUBUNIT, PUTATIVE): 1.07
fold change vs vehicle control (protein LMJF.28.0930 HY[…], CONSERVED): 1.12
fold change vs vehicle control (protein LMJF.28.0950 HY[…], CONSERVED): 1.03
fold change vs vehicle control (protein LMJF.28.1950 X-PRO, DIPEPTIDYL-PEPTIDASE,SERINE PEPTIDASE, CLAN SC, FAMILY S15, PUTATIVE): 1.13
fold change relative to vehicle control (protein LMJF.28.2770 HEAT-SHOCK PROTEIN HSP70, PUTATIVE): 1.25
fold change (protein LMJF.29.0060 TRYPTOPHANYL-TRNA SYNTHETASE, PUTATIVE): 1.06
fold change (protein LMJF.29.0820 CYSTEINE PEPTIDASE C (CPC)): 0.82
fold change relative to vehicle control (protein LMJF.29.0850 HIGH MOBILITY GROUP PROTEIN HOMOLOG TDP-1, PUTATIVE): 1.3
fold change vs vehicle control (protein LMJF.29.1160 TRYPAREDOXIN): 1.04
fold change (protein LMJF.29.1760 PARAFLAGELLAR ROD PROTEIN 1D, PUTATIVE): 0.97
fold change vs vehicle control (protein LMJF.29.1780 DIPHTHAMIDE SYNTHESIS PROTEIN, PUTATIVE): 0.98
fold change vs vehicle control (protein LMJF.29.2240 AMINOPEPTIDASE, PUTATIVE): 1.11
fold change (protein LMJF.29.2310 ENOYL-COA HYDRATASE/ISOMERASE-LIKE PROTEIN): 1.08
fold change (protein LMJF.29.2860 40S RIBOSOMAL PROTEIN S19-LIKE PROTEIN): 1.19
fold change vs vehicle control (protein LMJF.30.0850 SURFACE PROTEIN AMASTIN, PUTATIVE): 1.16
fold change (protein LMJF.30.1250 PYRIDOXAL KINASE, PUTATIVE): 1.01
fold change vs vehicle control (protein LMJF.30.3190 3-HYDROXY-3-METHYLGLUTARYL-COA REDUCTASE): 1.04
fold change vs vehicle control (protein LMJF.30.3520 S-ADENOSYL[…]): 1.05
fold change vs vehicle control (protein LMJF.31.0440 CYTOSKELETON-[…] CAP5 5, PUTATIVE): 1
fold change (protein LMJF.31.1130 N-ACYL-L-AMINO ACID AMIDOHYDROLASE, PUTATIVE): 0.8
fold change vs vehicle control (protein LMJF.31.1640 THIOLASE PROTEIN-LIKE PROTEIN): 1.14
fold change (protein LMJF.31.1800 AMINO ACID PERMEASE): 1.08
fold change (protein LMJF.31.2250 3,2-TRANS-ENOYL-COA ISOMERASE, MIT[…], PUTATIVE): 0.92
fold change vs vehicle control (protein LMJF.31.2790 ADP-RI[…], PUTATIVE): 1.1
fold change (protein LMJF.31.3130 […]-COA CARBOXYLASE BIOTINYLATED […]-LIKE PROTEIN): 1.03
fold change (protein LMJF.32.0010 HYPOTHETICAL PROTEIN, CONSERVED): 0.82
fold change vs vehicle control (protein LMJF.32.0400 ATP-DEPENDENT RNA HELICASE, PUTATIVE): 1.03
fold change vs vehicle control (protein LMJF.32.0520 PROFILIN, PUTATIVE): 1
fold change (protein LMJF.32.1000 […]-COMPLEX PROTEIN, PUTATIVE): 1.02
fold change vs vehicle control (protein LMJF.32.3010 HYPOTHETICAL PROTEIN, CONSERVED,LEUCINE-RICH REPEAT PROTEIN, PUTATIVE): 0.99
fold change vs vehicle control (protein LMJF.32.3870 MYOSIN XXI): 0.91
fold change vs vehicle control (protein LMJF.33.0890, HY[…], CONSERVED): 1.05
fold change vs vehicle control (protein LMJF.33.1070 HY[…], UNKNOWN FUNCTION): 1.03
fold change (protein LMJF.33.1330 CYSTEINE CONJUGATE BETA-LYASE, AMINOTRANSFERASE- LIKE PROTEIN): 1.33
fold change (protein LMJF.33.1610 PEPTIDASE M20/M25/M40, PUTATIVE): 1
fold change relative to vehicle control (protein LMJF.33.1630 CYCLOPHILIN 4, PUTATIVE): 1.35
fold change vs vehicle control (protein LMJF.33.2300 UDP-GLC 4'-EPIMERASE, PUTATIVE): 1.15
fold change vs vehicle control (protein LMJF.33.2390 HEAT SHOCK PROTEIN, PUTATIVE): 1.12
fold change (protein LMJF.33.2410 HY[…], CONSERVED): 1.02
fold change (protein LMJF.33.3150 40S RIBOSOMAL PROTEIN S13, PUTATIVE): 1.22
fold change (protein LMJF.34.3500 RUVB-LIKE 1 DNA HELICASE, PUTATIVE): 1.2
fold change (protein LMJF.34.3670 VACUOLAR ATP SYNTHASE CATALYTIC SUBUNIT A, PUTATIVE): 1.09
fold change (protein LMJF.34.3740 SERINE PALMITOYLTRANSFERASE-LIKE PROTEIN): 0.95
fold change (protein LMJF.34.4120 HYPOTHETICAL PROTEIN, CONSERVED): 0.91
fold change vs vehicle control (protein LMJF.34.4370 20S […] 7 SUBUNIT, (PUTATIVE)): 1.06
fold change (protein LMJF.35.0370 ATP-DEPENDENT DEAD-BOX RNA HELICASE, PUTATIVE): 1.03
fold change vs vehicle control (protein LMJF.35.1380, MIT[…], BETA SUBUNIT, PUTATIVE): 1.09
fold change vs vehicle control (protein LMJF.35.1410 THREONYL-TRNA SYNTHETASE, PUTATIVE): 0.97
fold change vs vehicle control (protein LMJF.35.1720 CYCLOPHILIN 14, PUTATIVE): 1.13
fold change (protein LMJF.35.2500 HY[…], CONSERVED): 1.03
fold change (protein LMJF.35.2730 ACYL-COA DEHYDROGENASE, PUTATIVE): 1.02
fold change relative to vehicle control (protein LMJF.35.3010 […],TRYPANOTHIONE-DEPENDENT […]): 1.16
fold change vs vehicle control (protein LMJF.35.3100 ATP-DEPENDENT RNA HELICASE, PUTATIVE): 1.09
fold change vs vehicle control (protein LMJF.35.3340 6-phosphogluconate dehydrogenase): 1.05
fold change (protein LMJF.35.3700 GIM5A PROTEIN, PUTATIVE,[…] PROTEIN): 1.04
fold change vs vehicle control (protein LMJF.35.3840 PROTEASOME BETA 2 SUBUNIT, PUTATIVE): 0.82
fold change vs vehicle control (protein LMJF.35.3860 T-COMPLEX PROTEIN 1, ETA SUBUNIT, PUTATIVE): 1.06
fold change (protein LMJF.35.4550 HYPOTHETICAL PROTEIN, CONSERVED): 0.88
fold change (protein LMJF.35.4770 CYCLOPHILIN 40): 0.93
fold change (protein LMJF.35.4850 PROTEASOME ALPHA 1 SUBUNIT, PUTATIVE): 1.1
fold change (protein LMJF.35.4860 HYPOTHETICAL PROTEIN, CONSERVED): 0.97
fold change relative to vehicle control (protein LMJF.35.5330 ISOPENTENYL-D[…]-ISOMERASE, PUTATIVE,ISOMERASE, PUTATIVE): 1.17
fold change vs vehicle control (protein LMJF.36.0180 ELONGATION FACTOR 2): 1.2
fold change vs vehicle control (protein LMJF.36.0620 HYPOTHETICAL PROTEIN, CONSERVED): 1.47
fold change vs vehicle control (protein LMJF.36.0990 40S RIBOSOMAL PROTEIN S10, PUTATIVE): 1.17
fold change vs vehicle control (protein LMJF.36.2020 CHAPERONIN HSP60, MIT[…]): 1.01
fold change vs vehicle control (protein LMJF.36.3460 HYPOTHETICAL PROTEIN, CONSERVED): 0.88
fold change (protein LMJF.36.3760 60S RIBOSOMAL PROTEIN L10A, PUTATIVE): 1.2
fold change vs vehicle control (protein LMJF.36.3840 GLYCYL TRNA SYNTHETASE, PUTATIVE): 1.06
fold change vs vehicle control (protein LMJF.36.4170 OXIDOREDUCTASE, PUTATIVE): 1.05
fold change vs vehicle control (protein LMJF.36.5010 40S RIBOSOMAL PROTEIN SA, PUTATIVE): 1.14
fold change (protein LMJF.36.5390 PHOSPHORIBOSYLPYROPHOSPHATE SYNTHETASE, PUTATIVE): 0.96
fold change vs vehicle control (protein LMJF.36.5620 ISOLEUCYL-TRNA SYNTHETASE, PUTATIVE): 1.15
fold change vs vehicle control (protein LMJF.36.6430 PROTEIN TRANSPORT PROTEIN SEC23-LIKE PROTEIN): 1.05
fold change (protein LMJF.36.6760 HYPOTHETICAL PROTEIN, CONSERVED): 1.1
fold change vs vehicle control (protein LMJF.36.6910 T-COMPLEX PROTEIN 1, THETA SUBUNIT, PUTATIVE): 1.05
fold change vs vehicle control (protein LMJF.36.6940 disulfide isomerase PDI): 1.3
fold change vs vehicle control (protein LMJF.[…] […] EXOPOLYPHOSPHATASE, PUTATIVE): 0.78
